The test system of assay [1] is quadruplex RNA F-EBNA1-T. The experiment in a line: FRET-melting assay. The assay is classed as binding, Epstein-Barr virus. Particulars: for ΔTm, ligand + 3 μM ds26 / ΔTm, ligand + 10 μM ds26 / ΔTm, ligand alone: F-EBNA1-T 0.2 μM, ligand 1.0 μM, K+10 buffer; for ΔTm, ligand + 3 μM ds26: competitor DNA ds26 3 μM (15 eq); for ΔTm, ligand + 10 μM ds26: competitor DNA ds26 10 μM (50 eq); for ΔTm, ligand alone: no competitor; for affinity for the G-quadruplex structure of EBNA1 (in words, FRET-melting data): conclusion from Table 2. The source says: The FRET-melting assay is based on thermal denaturation of G4-ARN monitored by fluorescence due to the phenomenon of Förster Resonance Energy Transfer (FRET). This method uses quadruplex-forming RNA sequence dual-labeled with two different fluorophores: a donor (fluorescein, or FAM) and an acceptor (tetramethylrhodamine, or TAMRA). When RNA is folded into G-quadruplex (G4) structure, fluorescence of the donor fluorophore is weak due to strong energy transfer (FRET) to the neighboring acceptor fluorophore. Upon thermal denaturation, the quadruplex unfolds and the fluorophores are separated, leading to decrease of the FRET effect and increase of the fluorescence of the donor (see FIG. 2). By following the fluorescence of the donor as a function of temperature, a melting curve of the G-quadruplex RNA can be obtained, which allows determining the temperature of denaturation at which 50% of the quadruples is unfolded (T1, FIG. 3).
The FRET-melting assay allows assessing the affinity of small molecules (ligands) for the G4-RNA. The addition of a G4-ligand stabilizes the G-quadruplex structure and increases the denaturation temperature. The temperature of denaturation in the presence of ligands (T2) can be compared with that obtained in the absence of ligands (T1). The value of ΔTm (ΔTm=T2−T1) represents a measure of the affinity of the compounds of the invention (ligand). Generally, values of ΔTm>20° C. correspond to ligands of high affinity.
The dual-labeled oligoribonucleotide EBNA1 [5′-FAM-r(GGGGCAGGAGCAGGAGGA)-TAMRA-3′] (SEQ ID no 2) purified by reversed-phase HPLC was purchased from Eurogentec. The donor fluorophore was 6-carboxyfluorescein (FAM) and the acceptor fluorophore was 6-carboxytetramethylrhodamine (TAMRA).
Stock solutions of the ligands (2 mM in DMSO) were used for FRET-melting assay, unless otherwise stated, and were stored at −20° C. FRET-melting measurements are performed on 7900HT Fast Real-Time PCR System (Applied Biosystems) with Microamp Fast optical 96-well reaction plate (Applied Biosystems).
Preparation of Oligonucleotides For FRET-melting assay, oligoribonucleotide F-EBNA1-T was dissolved in K^+10 buffer (10 mM lithium cacodylate buffer, pH 7.3, supplemented with 10 mM KCl and 90 mM LiCl).
Prior to use, all oligonucleotides were pre-treated by heating at 95° C. for 5 min, then rapidly cooled to 4° C. to favor the intramolecular folding by kinetic trapping. Duplex-DNA ds26 (5′CAA-TCG-GAT-CGA-ATT-CGA-TCC-GAT-TG-3′) (SEQ ID no 3) was prepared by heating this self-complementary strand at 90° C. for 5 min in K^+10 buffer followed by a slow cooling over 6 h.
FRET-melting assay is performed in 96-well plates on real time PCR apparatus 7900HT Fast Real-Time PCR System using the heating ramp as follow: 5 min at 25° C., then increase of 0.5° C. every minute until 95° C. Each experimental condition was tested in duplicated in a volume of 25 μL for each sample. The 96-well plates (Applied Biosystems) were prepared by aliquoting the annealed RNA (24 μL of 0.21 μM solution in K^+10 buffer) into each well, followed by 1 μL of ligand solution (25 μM in K^+10 buffer). For competition experiments, duplex competitors were added to 200 nM quadruplex sequences at final concentrations of 3.0 μM (15 eq) and 10.0 μM (50 eq), with a total reaction volume of 25 μL, with the labeled oligoribonucleotide (0.2 μM) and the ligand (1.0 μM). Measurements were made with excitation at 492 nm and detection at 516 nm. The change in the melting temperature in the presence of 1.0 μM putative ligand, ΔTm (1.0 μM), was calculated from at least two experiments by subtraction of the blank from the averaged melting temperature of each compound (1.0 μM).
The results are shown in FIG. 4 and in Table 2 below (higher ΔTm values indicate higher affinity of the compounds to G4-RNA structure of EBNA1).

Assay [2] concerns the target G4-RNA EBNA1. The experiment in a line: HT-G4-FID assay: Thiazole Orange displacement from G4-RNA. The following applies: for DC50: K+-100 buffer, pH 7.3, triplicate assays; for affinity for the G-quadruplex structure of EBNA1 (in words, FID data): conclusion from Table 1. The assay is classed as binding, Epstein-Barr virus. The method, then:
This assay is based on the displacement of a fluorescent indicator (Thiazole Orange, hereinafter TO) from a G4-RNA structure (RNA G-quadruplex of EBNA1) by a putative ligand such as the compounds of the invention (see FIG. 1). This displacement is quantified as % TO displacement. The percentage of TO displacement is calculated from the fluorescence intensity (F) in the presence of a putative ligand, using:
[formula] where F0 is fluorescence intensity of the probe (TO) bound to RNA without added ligand. The percentage of displacement is then plotted as a function of the concentration of added ligand. The RNA affinity of putative ligands is evaluated using the concentration of a ligand required to decrease the fluorescence of the probe by 50% (noted DC50), which is determined graphically from non-linear fitting of the displacement curve. […] 2. Materials and Reagents
Thiazole Orange (TO) and cacodylic acid were purchased from Aldrich and used without further purification. The oligoribonucleotide EBNA1 [5′-r(GGGGCAGGAGCAGGAGGA)-3′] (SEQ ID no 1) purified by reversed-phase HPLC was purchased from Eurogentec.
Stock solutions of the ligands (2 mM in DMSO (dimethylsulfoxyde)) were used for G4-FID assay, unless otherwise stated, and were stored at −20° C. Stock solutions of TO (2 mM in DMSO) were used for G4-FID assay. Fluorescent probe powders and solutions were stored and used, protected from light and used as aliquots to avoid freeze-thaw cycles. HT-G4-FID measurements were performed on a FLUOstar Omega microplate reader (BMG Labtech) with 96-well Non-Binding Surface black with black bottom polystyrene microplates (Corning ref 3650).
For HT-G4-FID assay, the oligonucleotide was dissolved in K^+−100-buffer (10 mM lithium cacodylate, pH 7.3, 100 mM KCl, 1 mM EDTA, 1% DMSO). Oligonucleotide concentrations were determined on the basis of their absorbance at 260 nm. Prior to use, the oligonucleotide was pre-treated by heating at 95° C. for 5 min followed by a slow cooling to 25° C.
Each G4-FID assay is performed in a 96-well microplates. […] The microplate is filled with (a) K^+−100 solution (qs for 200 μL) (b) 10 μL of a solution of pre-folded oligonucleotides (5 μM) and TO (10 μM-2 eq) and (c) an extemporaneously prepared 5 μM ligand solution in K^+−100 buffer (0 to 100 μL along the line of the microplate, i.e., from column […]: 0, 0.125, 0.25, 0.375, 0.5, 0.625, 0.75, 1.0, 1.25, 1.5, 2.0 and 2.5 μM) (see Largy et al., Anal Bioanal Chem 2011, 400, 34193427). After 5 min of orbital shaking at 500 rpm, fluorescence intensity is measured using the following experimental parameters: positioning delay: 0.5 s, 20 flashes per well, emission/excitation filters (nm): 485/520, gain adjusted at 80% of the fluorescence from the most fluorescent well (i.e., a well from column A).
Results are shown in Table 1 below (lower DC50 values indicate higher affinity of compounds to the G4-RNA structure of EBNA1).

This note sets out measurements from patent US11406631B2, “Hydrazone derivatives for preventing or treating EBV-related cancers” (Universite de Bretagne Occidentale, priority 2018, dated 2022).

On to `O=C(NN=Cc1cc[n+](Cc2ccccc2)c2ccccc12)c1cccc(C(=O)NN=Cc2cc[n+](Cc3ccccc3)c3ccccc23)n1.[Br-].[Br-]` [Compound 2c, N′^2,N′^6-Bis[(1-benzylquinolinium-4-yl)methylene]pyridine-2,6-dicarbohydrazide bromide], for which, in assay [1], the “ΔTm, ligand + 3 μM ds26” value amounted to 11.4 ± 0.6 °C; the “ΔTm, ligand + 10 μM ds26” value was 9.6 ± 0.2 °C; the “ΔTm, ligand alone” value stood at 10.1 ± 0.9 °C. Further, in assay [2], the DC50 is 390 ± 20 nM and the “affinity for the G-quadruplex structure of EBNA1 (in words, FID data)” value was “particularly high affinity”.

Take `CC[n+]1cccc2cc(C=NNC(=O)c3cccc(C(=O)NN=Cc4ccc5c(ccc[n+]5CC)c4)n3)ccc21.[I-].[I-]` [Compound 3b, N′^2,N′^6-Bis[(1-ethylquinolinium-6-yl)methylene]pyridine-2,6-dicarbohydrazide iodide]: in assay [1], the “ΔTm, ligand + 3 μM ds26” value amounted to 7.6 ± 0.5 °C; the “ΔTm, ligand + 10 μM ds26” value turned out to be 7.4 ± 0.3 °C; the “ΔTm, ligand alone” value was 5.9 ± 0.1 °C. Besides, the DC50 in assay [2] turned out to be 740 ± 30 nM.

For the compound `O=C(NN=Cc1ccc2c(ccc[n+]2Cc2ccccc2)c1)c1cccc(C(=O)NN=Cc2ccc3c(ccc[n+]3Cc3ccccc3)c2)n1.[Br-].[Br-]` [Compound 3c, N′^2,N′^6-Bis[(1-benzylquinolinium-6-yl)methylene]pyridine-2,6-dicarbohydrazide bromide], in assay [1], the “ΔTm, ligand + 3 μM ds26” value amounted to 12.2 ± 0.2 °C; the “ΔTm, ligand + 10 μM ds26” value is 12.0 ± 0.2 °C; the “ΔTm, ligand alone” value was 10.4 ± 0.3 °C. The DC50 in assay [2] worked out at 720 ± 30 nM.

With `CC[n+]1cccc2cc(C=NNC(=O)c3ccc4ccc(C(=O)NN=Cc5ccc6c(ccc[n+]6CC)c5)nc4n3)ccc21.[I-].[I-]` [Compound 9b, N′^2,N′^7-Bis[(1-ethylquinolinium-6-yl)methylene]-1,8-naphthyridine-2,7-dicarbohydrazide iodide], in assay [1], the “ΔTm, ligand + 3 μM ds26” value turned out to be 10.3 ± 0.2 °C; the “ΔTm, ligand + 10 μM ds26” value is 8.8 ± 0.2 °C; the “ΔTm, ligand alone” value amounted to 11.8 ± 0.1 °C. This compound gave a DC50 in assay [2] of 800 ± 10 nM.

Regarding `O=C(NN=Cc1ccc2c(ccc[n+]2Cc2ccccc2)c1)c1ccc2ccc(C(=O)NN=Cc3ccc4c(ccc[n+]4Cc4ccccc4)c3)nc2n1.[Br-].[Br-]` [Compound 9c, N′^2,N′^7-Bis[(1-benzylquinolinium-6-yl)methylene]-1,8-naphthyridine-2,7-dicarbohydrazide bromide], in assay [1], the “ΔTm, ligand + 3 μM ds26” value is 12.3 ± 0.4 °C; the “ΔTm, ligand + 10 μM ds26” value was 10.0 ± 1.7 °C; the “ΔTm, ligand alone” value was 13.1 ± 0.6 °C. In assay [2], this compound registered a DC50 of 1090 ± 100 nM.

Turning to `O=C(NN=Cc1cc[n+](Cc2ccccc2)c2ccccc12)c1ccc2ccc3ccc(C(=O)NN=Cc4cc[n+](Cc5ccccc5)c5ccccc45)nc3c2n1.[Br-].[Br-]` [Compound 11c, N′^2,N′^9-Bis[(1-benzylquinolinium-4-yl)methylene]-1,10-phenanthroline-2,9-dicarbohydrazide bromide], in assay [1], the “ΔTm, ligand + 3 μM ds26” value amounted to 20.3 ± 0.4 °C; the “ΔTm, ligand + 10 μM ds26” value came to 17.0 ± 0.8 °C; the “ΔTm, ligand alone” value was 20.1 ± 0.3 °C; the “affinity for the G-quadruplex structure of EBNA1 (in words, FRET-melting data)” value (shortened to “affinity … (in words, FRET-melting data)”) was “particularly high affinity”. Also, in assay [2], the DC50 is 340 ± 20 nM and the “affinity for the G-quadruplex structure of EBNA1 (in words, FID data)” value was “particularly high affinity”.

For the compound `CC[n+]1cccc2cc(C=NNC(=O)c3ccc4ccc5ccc(C(=O)NN=Cc6ccc7c(ccc[n+]7CC)c6)nc5c4n3)ccc21.[I-].[I-]` [Compound 12b, N′^2,N′^9-Bis[(1-ethylquinolinium-6-yl)methylene]-1,10-phenanthroline-2,9-dicarbohydrazide iodide], in assay [1], the “ΔTm, ligand + 3 μM ds26” value is 25.9 ± 0.4 °C; the “ΔTm, ligand + 10 μM ds26” value is 25.1 ± 0.8 °C; the “ΔTm, ligand alone” value came to 28.5 ± 1.1 °C; the “affinity … (in words, FRET-melting data)” value is “particularly high affinity”. This compound returned a DC50 in assay [2] of 590 ± 30 nM.

Regarding `O=C(NN=Cc1ccc2c(ccc[n+]2Cc2ccccc2)c1)c1ccc2ccc3ccc(C(=O)NN=Cc4ccc5c(ccc[n+]5Cc5ccccc5)c4)nc3c2n1.[Br-].[Br-]` [Compound 12c, N′^2,N′^9-Bis[(1-benzylquinolinium-6-yl)methylene]-1,10-phenanthroline-2,9-dicarbohydrazide bromide], in assay [1], the “ΔTm, ligand + 3 μM ds26” value came to 25.0 ± 0.7 °C; the “ΔTm, ligand + 10 μM ds26” value is 22.7 ± 1.5 °C; the “ΔTm, ligand alone” value was determined as 25.3 ± 1.3 °C; the “affinity … (in words, FRET-melting data)” value is on record as “particularly high affinity”. Moreover, the DC50 in assay [2] turned out to be 650 ± 60 nM.
